{
  "source": "patent US20250215052A1",
  "about": "“INHIBITORS OF PICK1 AND USES THEREOF” (University of Copenhagen, priority 2018, published 2025)",
  "tested_on": "PICK1",
  "assay": "Peptide accumulation in striatal neurons with PICK1 knock down or replacement",
  "assay_type": "cell-based, rat",
  "conditions": "5 nM, 1 hour",
  "text": "For shRNA-mediated knock down and replacement studies of PICK1, striatal neurons were transduced at 14 DIV with three different lentivirus; FUGWH1sh18GFPPICK1 (GFP-PICK1WT), FUGWH1sh18eGFP (GFP-sh18) or FUGWH1sh18deleGFP (GFP). The replacement plasmid GFP-PICK1WT expresses a short hairpin (sh18) that targets endogenous PICK1 and a resistant eGFP tagged PICK1. The GFP control vector (GFP) was created by removing the short hairpin (Holst et al., 2013, Jensen et al., 2018). Lentiviruses were produced as described previously (Rasmussen et al., 2009).\nNeurons were rinsed in PBS and blocked in 0.05% Triton-X100 with 5% goat serum for 20 min-at room temperature. Subsequently, neurons were labelled with rabbit anti-DARRP32 (1:800) and chicken anti-GFP (1:2000) for 1 hour at room temperature, before incubation with 1:500 goat anti-rabbit Alexa-647 and goat anti-chicken Alexa-488 secondary antibodies.\nImages for quantification of peptide were acquired with a Zeiss LSM 710 laser-scanning microscopy. Quantification of the TMR-TAT-P4-(C5)2 intensity was performed by defining each neuron as a region of interest. The mean intensity values obtained from each neuron were subsequently normalized to the average of the intensity values of the GFP transduced neurons",
  "data": [
    {"substance": "TAMRA-YGRKKRRQRRR-PEG4-(HWLKV)2 [TMR-TAT-P4-(C5)2]", "values": [
      {"measurement": "peptide signal in sh18 + GFP-PICK1 neurons vs control (GFP)", "result": "significantly increased"}
    ]}
  ]
}
